Results from article PMC11620503 (Antimicrobial Agents and Chemotherapy, 2024).
In brackets after ≈: the same amount, converted by molar mass. Like-named read-outs stand apart in the source and are kept apart here.

Assays:
96 P. aeruginosa = assay: MIC, broth microdilution; assay type: cell-based, Pseudomonas aeruginosa; details: Pseudomonas aeruginosa (96)
[1] = system: serine-carbapenemase-producing isolates (Enterobacterales); assay: MIC, broth microdilution; assay type: cell-based; details: Enterobacterales with serine-carbapenemases (80)
[2] = system: E. coli CDC-119 (NDM-1), PBP3 mutations; assay: MIC, broth microdilution; assay type: cell-based; details: Escherichia coli
[3] = system: E. coli CDC-137 (NDM-6), PBP3 mutations; assay: MIC, broth microdilution; assay type: cell-based; details: Escherichia coli, fixed BLI concentration (μg/mL) in parentheses in label
[4] = system: MEM-, imipenem/relebactam-, and ceftolozane/tazobactam-nonsusceptible P. aeruginosa; assay: MIC, broth microdilution; assay type: cell-based, Pseudomonas aeruginosa; details: for CLSI MIC interpretation I (intermediate) / CLSI MIC interpretation R (resistant) / CLSI MIC interpretation S (susceptible): CLSI breakpoints, marked c: breakpoints for β-lactam alone; for MIC Range / MIC50 / MIC90: fixed concentration (μg/mL) in label; for MIC50 / MIC90: Pseudomonas aeruginosa; for MIC50: read-out: MIC50; for MIC90: read-out: MIC90
[5] = system: E. coli CDC-435 (NDM-1), PBP3 mutations; assay: MIC, broth microdilution; assay type: cell-based; details: Escherichia coli, fixed BLI concentration (μg/mL) in parentheses in label
[6] = system: MEM-nonsusceptible Enterobacterales with metallo-carbapenemases; assay: MIC, broth microdilution; assay type: cell-based; details: MEM-nonsusceptible Enterobacterales with metallo-carbapenemases (55), cefiderocol 54 isolates
[7] = system: E. coli CDC-150 (NDM-5), PBP3 mutations; assay: MIC, broth microdilution; assay type: cell-based; details: Escherichia coli, fixed BLI concentration (μg/mL) in parentheses in label
[8] = system: 207 Enterobacterales including carbapenem-resistant isolates; assay: MIC, broth microdilution; assay type: cell-based
[9] = system: Enterococcus faecium NCTC 12204; assay: MIC, reference strains of aerobic bacteria; assay type: cell-based; details: NCTC12204
[10] = system: Citrobacter freundii ATCC 8090; assay: MIC, reference strains of aerobic bacteria; assay type: cell-based; details: ATCC8090
[11] = system: Klebsiella oxytoca KUB4313; assay: MIC, reference strains of aerobic bacteria; assay type: cell-based
[12] = system: Serratia marcescens NBRC 12648 (ATCC 14756); assay: MIC, reference strains of aerobic bacteria; assay type: cell-based
[13] = system: Staphylococcus lugdunensis KUB4804; assay: MIC, reference strains of aerobic bacteria; assay type: cell-based
[14] = system: Streptococcus mitis GTC495 (ATCC 49456); assay: MIC, reference strains of aerobic bacteria; assay type: cell-based; details: ATCC49456
[15] = system: Klebsiella pneumoniae ATCC 700603; assay: MIC, reference strains of aerobic bacteria; assay type: cell-based; details: ATCC700603
[16] = system: Streptococcus salivarius GTC215; assay: MIC, reference strains of aerobic bacteria; assay type: cell-based
[17] = system: Micrococcus luteus ATCC 9341; assay: MIC, reference strains of aerobic bacteria; assay type: cell-based; details: ATCC9341
[18] = system: Stenotrophomonas maltophilia KUB3619; assay: MIC, reference strains of aerobic bacteria; assay type: cell-based
[19] = system: Acinetobacter baumannii ATCC 19606; assay: MIC, reference strains of aerobic bacteria; assay type: cell-based; details: ATCC19606
[20] = system: Moraxella catarrhalis ATCC 25238; assay: MIC, reference strains of aerobic bacteria; assay type: cell-based; details: ATCC25238
[21] = system: Staphylococcus aureus ATCC 6538P/methicillin-sensitive; assay: MIC, reference strains of aerobic bacteria; assay type: cell-based; details: ATCC6538P
[22] = system: Staphylococcus saprophyticus KUB4845; assay: MIC, reference strains of aerobic bacteria; assay type: cell-based
[23] = system: Escherichia coli ATCC 25922; assay: MIC, reference strains of aerobic bacteria; assay type: cell-based; details: ATCC25922
[24] = system: Staphylococcus epidermidis KUB4862/methicillin-resistant; assay: MIC, reference strains of aerobic bacteria; assay type: cell-based
[25] = system: Streptococcus pseudoporcinus ATCC BAA-1381; assay: MIC, reference strains of aerobic bacteria; assay type: cell-based; details: ATCCBAA1381
[26] = system: Enterobacter hormaechei ATCC BAA-2082; assay: MIC, reference strains of aerobic bacteria; assay type: cell-based; details: ATCCBAA2082
[27] = system: Providencia rettgeri ATCC 9250; assay: MIC, reference strains of aerobic bacteria; assay type: cell-based; details: ATCC9250
[28] = cited from earlier work
[29] = system: Proteus mirabilis NBRC 3849 (NCTC 6197); assay: MIC, reference strains of aerobic bacteria; assay type: cell-based
[30] = system: Streptococcus mutans GTC218; assay: MIC, reference strains of aerobic bacteria; assay type: cell-based
[31] = system: Streptococcus pneumoniae ATCC 49619; assay: MIC, reference strains of aerobic bacteria; assay type: cell-based; details: ATCC49619
[32] = CLSI breakpoints, marked c: breakpoints for β-lactam alone
[33] = fixed concentration (μg/mL) in label
[34] = fixed concentration (μg/mL) in label, read-out: MIC50
[35] = fixed concentration (μg/mL) in label, read-out: MIC90
[36] = CLSI breakpoints, marked c: breakpoints for β-lactam alone, tigecycline: FDA breakpoints
[37] = Ceftolozane/tazobactam-nonsusceptible Pseudomonas aeruginosa (45)
[38] = Imipenem/relebactam-nonsusceptible Pseudomonas aeruginosa (43)
[39] = MEM-nonsusceptible Pseudomonas aeruginosa (76)
[40] = All Enterobacterales (207), cefiderocol 205 isolates, CLSI breakpoints, marked c: breakpoints for β-lactam alone, tigecycline: FDA breakpoints

CC(C)(O/N=C(\C(=O)N[C@@H]1C(=O)N2C(C(=O)[O-])=C(C[N+]3(CCNC(=O)c4ccc(O)c(O)c4Cl)CCCC3)CS[C@H]12)c1csc(N)n1)C(=O)O [FDC, cefiderocol]
CLSI MIC interpretation I (intermediate) (96 P. aeruginosa; [32]): 0%
CLSI MIC interpretation R (resistant) (96 P. aeruginosa; [32]): 0%
CLSI MIC interpretation S (susceptible) (96 P. aeruginosa; [32]): 100%
MIC Range (96 P. aeruginosa; [33]): ≤0.06 to 4 µg/mL
MIC50 (96 P. aeruginosa; [34]): 0.5 µg/mL (≈ 0.665 µM)
MIC90 (96 P. aeruginosa; [35]): 2 µg/mL (≈ 2.66 µM)
CLSI MIC interpretation I (intermediate) [1, 36]: 0%
CLSI MIC interpretation R (resistant) [1, 36]: 0%
CLSI MIC interpretation S (susceptible) [1, 36]: 100%
MIC Range [1, 33]: ≤0.06 to 4 µg/mL
MIC50 [1, 34]: 0.25 µg/mL (≈ 0.332 µM)
MIC90 [1, 35]: 2 µg/mL (≈ 2.66 µM)
MIC [2]: 0.5 µg/mL (≈ 0.665 µM)
MIC [3]: 2 µg/mL (≈ 2.66 µM)
CLSI MIC interpretation I (intermediate) [4, 37]: 0%
CLSI MIC interpretation R (resistant) [4, 37]: 0%
CLSI MIC interpretation S (susceptible) [4, 37]: 100%
MIC Range [4, 37]: 0.25 to 4 µg/mL
CLSI MIC interpretation I (intermediate) [4, 38]: 0%
CLSI MIC interpretation R (resistant) [4, 38]: 0%
CLSI MIC interpretation S (susceptible) [4, 38]: 100%
MIC Range [4, 38]: 0.12 to 4 µg/mL
CLSI MIC interpretation I (intermediate) [4, 39]: 0%
CLSI MIC interpretation R (resistant) [4, 39]: 0%
CLSI MIC interpretation S (susceptible) [4, 39]: 100%
MIC Range [4, 39]: ≤0.06 to 4 µg/mL
MIC50 [4, 37]: 0.5 µg/mL
MIC90 [4, 37]: 2 µg/mL
MIC50 [4, 38]: 0.5 µg/mL
MIC90 [4, 38]: 2 µg/mL
MIC50 [4, 39]: 0.5 µg/mL (≈ 0.665 µM)
MIC90 [4, 39]: 2 µg/mL (≈ 2.66 µM)
MIC [5]: 4 µg/mL (≈ 5.32 µM)
CLSI MIC interpretation I (intermediate) [6, 36]: 7.4%
CLSI MIC interpretation R (resistant) [6, 36]: 1.9%
CLSI MIC interpretation S (susceptible) [6, 36]: 90.7%
MIC50 [6, 34]: 1 µg/mL (≈ 1.33 µM)
MIC90 [6, 35]: 4 µg/mL (≈ 5.32 µM)
MIC [7]: 4 µg/mL (≈ 5.32 µM)
CLSI MIC interpretation I (intermediate) [8, 40]: 2%
CLSI MIC interpretation R (resistant) [8, 40]: 0.5%
CLSI MIC interpretation S (susceptible) [8, 40]: 97.6%
MIC50 ([8]; read-out: MIC50): 0.5 µg/mL (≈ 0.665 µM)
MIC90 ([8]; read-out: MIC90): 2 µg/mL (≈ 2.66 µM)

N[C@@H](C(=O)N1CC(Oc2ccc3c(c2C(=O)O)OB(O)CC3)C1)c1c[nH]cn1 [KSP-1007, 7-({1-[(2R)-2-amino-2-(1H-imidazol-4-yl)acetyl]azetidin-3-yl}oxy)-2-hydroxy-3,4-dihydro-2H-1,2-benzoxaborinine-8-carboxylic acid]
MIC [9]: > 128 µg/mL
MIC [10]: 128 µg/mL (≈ 331 µM)
MIC [11]: 128 µg/mL (≈ 331 µM)
MIC [12]: > 128 µg/mL
MIC [13]: 4 µg/mL (≈ 10.4 µM)
MIC [14]: 4 µg/mL (≈ 10.4 µM)
MIC [15]: > 128 µg/mL
MIC [16]: 0.25 µg/mL (≈ 0.647 µM)
MIC [17]: 128 µg/mL (≈ 331 µM)
MIC [18]: > 128 µg/mL
MIC [19]: > 128 µg/mL
MIC [20]: 64 µg/mL (≈ 166 µM)
MIC [21]: 8 µg/mL (≈ 20.7 µM)
MIC [22]: 4 µg/mL (≈ 10.4 µM)
MIC [23]: 128 µg/mL (≈ 331 µM)
MIC [24]: > 128 µg/mL
MIC [25]: 1 µg/mL (≈ 2.59 µM)
MIC [26]: > 128 µg/mL
MIC [27]: > 128 µg/mL
human plasma protein binding rate [28]: about 75%
MIC [29]: > 128 µg/mL
MIC [30]: 8 µg/mL (≈ 20.7 µM)
MIC [31]: 2 µg/mL (≈ 5.18 µM)
